{
  "source": "patent US20170326125A1",
  "about": "“MULTISUBSTITUTED AROMATIC COMPOUNDS AS INHIBITORS OF THROMBIN” (VERSEON CORPORATION, priority 2016, published 2017)",
  "note": "pIC50: −log10 of the molar value.",
  "data": [
    {"target": "T1, Human thrombin (Homo sapiens, UniProt P00734)", "T1 construct": "purchased Haematologic Technologies Inc", "assay": "Inhibition of the protease activity of thrombin (chromogenic substrate S-2238)", "type": "biochemical", "conditions": "Table C; 3 nM thrombin, 125 μM S-2238, 10 min pre-incubation, RT", "values": [
      {"smiles": "CCCC(=O)n1nc(-c2cccnc2)nc1NCc1ccc(F)cc1", "note": "[Cmpd 316, 1-(5-[(4-fluorophenyl)methyl]amino-3-(pyridin-3-yl)-1H-1,2,4-triazol-1-yl)butan-1-one]", "pIC50": "> 7.00"},
      {"smiles": "CCC(=O)n1nc(-c2ccco2)nc1NCc1ccccc1", "note": "[Cmpd 348, 1-[5-(benzylamino)-3-(furan-2-yl)-1H-1,2,4-triazol-1-yl]propan-1-one]", "pIC50": "> 7.00"},
      {"smiles": "COC(=O)c1n[nH]c(N=Cc2cccnc2)n1", "note": "[Cmpd 387, methyl 5-[(pyridin-3-ylmethylidene)amino]-1H-1,2,4-triazole-3-carboxylate]", "pIC50": "< 6.00"},
      {"smiles": "Nc1nc(-c2ccco2)n[nH]1", "note": "[Cmpd 25, 3-(furan-2-yl)-1H-1,2,4-triazol-5-amine]", "pIC50": "< 6.00"},
      {"smiles": "O=C(c1ccccc1)n1nc(-c2cccnc2)nc1NCc1ccc(F)cc1", "note": "[Cmpd 356, 1-benzoyl-N-[(4-fluorophenyl)methyl]-3-(pyridin-3-yl)-1H-1,2,4-triazol-5-amine]", "pIC50": "> 7.00"},
      {"smiles": "CC(C)C(=O)n1nc(-c2ccco2)nc1NCc1ccc(F)cc1", "note": "[Cmpd 310, 1-(5-[(4-fluorophenyl)methyl]amino-3-(furan-2-yl)-1H-1,2,4-triazol-1-yl)-2-methylpropan-1-one]", "pIC50": "> 7.00"},
      {"smiles": "Cc1ccc(C(=O)n2nc(-c3cccnc3)nc2NCc2ccccc2)cc1", "note": "[Cmpd 411, N-benzyl-1-[(4-methylphenyl)carbonyl]-3-(pyridin-3-yl)-1H-1,2,4-triazol-5-amine]", "pIC50": "> 7.00"},
      {"smiles": "Cc1ccc(CNc2nc(-c3cccnc3)nn2C(=O)CC(C)C)cc1", "note": "[Cmpd 374, 3-methyl-1-(5-[(4-methylphenyl)methyl]amino-3-(pyridin-3-yl)-1H-1,2,4-triazol-1-yl)butan-1-one]", "pIC50": "> 7.00"},
      {"smiles": "CCCC(=O)n1nc(-c2cccnc2)nc1NCc1ccco1", "note": "[Cmpd 362, 1-5-[(furan-2-ylmethyl)amino]-3-(pyridin-3-yl)-1H-1,2,4-triazol-1-ylbutan-1-one]", "pIC50": "> 7.00"},
      {"smiles": "COc1ccc(CNc2nc(-c3cccnc3)nn2C(C)=O)cc1", "note": "[Cmpd 323, 1-(5-[(4-methoxyphenyl)methyl]amino-3-(pyridin-3-yl)-1H-1,2,4-triazol-1-yl)ethan-1-one]", "pIC50": "6.00 to 7.00"},
      {"smiles": "COc1ccc(CNc2nc(-c3cccnc3)nn2C(=O)CC(C)C)cc1", "note": "[Cmpd 320, 1-(5-[(4-methoxyphenyl)methyl]amino-3-(pyridin-3-yl)-1H-1,2,4-triazol-1-yl)-3-methylbutan-1-one]", "pIC50": "> 7.00"},
      {"smiles": "O=C(c1ccccc1Cl)n1nc(-c2ccco2)nc1NCc1ccc(F)cc1", "note": "[Cmpd 331, 1-[(2-chlorophenyl)carbonyl]-N-[(4-fluorophenyl)methyl]-3-(furan-2-yl)-1H-1,2,4-triazol-5-amine]", "pIC50": "> 7.00"},
      {"smiles": "CCC(=O)n1nc(-c2cccnc2)nc1NCc1ccccc1", "note": "[Cmpd 351, 1-[5-(benzylamino)-3-(pyridin-3-yl)-1H-1,2,4-triazol-1-yl]propan-1-one]", "pIC50": "> 7.00"}
    ]},
    {"target": "T1, Human thrombin", "assay": "Inhibition of the protease activity of thrombin (chromogenic substrate S-2238)", "type": "biochemical", "conditions": "inhibition of the protease activity of thrombin", "values": [
      {"smiles": "CCCn1nc(NCc2ccc(F)cc2)nc1-c1ccccn1", "note": "[Cmpd 217, N-[(4-fluorophenyl)methyl]-1-propyl-5-(pyridin-2-yl)-1H-1,2,4-triazol-3-amine]", "pIC50": "< 6.00"},
      {"smiles": "CCN(C)C(=O)c1cc(-c2ccccn2)n(CCc2ccc(F)cc2)n1", "note": "[Cmpd 294, N-ethyl-1-[2-(4-fluorophenyl)ethyl]-N-methyl-5-(pyridin-2-yl)-1H-pyrazole-3-carboxamide]", "pIC50": "< 6.00"},
      {"smiles": "O=C(c1ccccc1F)n1nc(-c2ccccc2F)cc1NCc1ccccc1", "note": "[Cmpd 277, N-benzyl-3-(2-fluorophenyl)-1-[(2-fluorophenyl)carbonyl]-1H-pyrazol-5-amine]", "pIC50": "6.00 to 7.00"},
      {"smiles": "CC(C)(C)OC(=O)Nc1ccccc1C(=O)n1nc(-c2ccccn2)nc1NCc1ccccc1", "note": "[Cmpd 301, tert-butyl N-(2-[5-(benzylamino)-3-(pyridin-2-yl)-1H-1,2,4-triazol-1-yl]carbonylphenyl)carbamate]", "pIC50": "< 6.00"},
      {"smiles": "O=C(c1c(Cl)cccc1Cl)n1nc(-c2ccccn2)nc1NCc1ccccc1", "note": "[Cmpd 238, N-benzyl-1-[(2,6-dichlorophenyl)carbonyl]-3-(pyridin-2-yl)-1H-1,2,4-triazol-5-amine]", "pIC50": "< 6.00"},
      {"smiles": "O=C(c1c(F)cccc1F)n1nc(-c2ccccn2)nc1NCc1ccccc1", "note": "[Cmpd 239, N-benzyl-1-[(2,6-difluorophenyl)carbonyl]-3-(pyridin-2-yl)-1H-1,2,4-triazol-5-amine]", "pIC50": "6.00 to 7.00"},
      {"smiles": "COc1ccccc1C(=O)n1nc(-c2cccnn2)nc1NCc1ccccc1", "note": "[Cmpd 254, N-benzyl-1-[(2-methoxyphenyl)carbonyl]-3-(pyridazin-3-yl)-1H-1,2,4-triazol-5-amine]", "pIC50": "> 7.00"},
      {"smiles": "COc1ccccc1C(=O)n1nc(-c2ccccn2)cc1NCc1ccccc1", "note": "[Cmpd 256, N-benzyl-1-[(2-methoxyphenyl)carbonyl]-3-(pyridin-2-yl)-1H-pyrazol-5-amine]", "pIC50": "6.00 to 7.00"}
    ]},
    {"target": "T1, Human thrombin", "assay": "Inhibition of the protease activity of thrombin (chromogenic substrate S-2238)", "type": "biochemical", "conditions": "inhibition of the protease activity of thrombin; class symbols a/b/c", "values": [
      {"smiles": "CNC(=O)c1n[nH]c(C(=O)Nc2ccccc2Cl)n1", "note": "[Cmpd 187, 5-C-(2-chlorobenzene)-3-N-methyl-1H-1,2,4-triazole-3,5-dicarboxamide]", "pIC50": "< 6.00"},
      {"smiles": "COc1ccccc1C(=O)n1nc(-c2cncnc2)nc1NCc1ccccc1", "note": "[Cmpd 34]", "pIC50": "> 7.00"},
      {"smiles": "Nc1ccccc1C(=O)n1nc(-c2ccccn2)nc1NCc1ccccc1", "note": "[Cmpd 109, 1-[(2-aminophenyl)carbonyl]-N-benzyl-3-(pyridin-2-yl)-1H-1,2,4-triazol-5-amine]", "pIC50": "> 7.00"},
      {"smiles": "COc1ccc(CNc2nc(-c3ccccn3)nn2C(=O)c2ccccc2)cc1", "note": "[Cmpd 157, 1-benzoyl-N-[(4-methoxyphenyl)methyl]-3-(pyridin-2-yl)-1H-1,2,4-triazol-5-amine]", "pIC50": "6.00 to 7.00"},
      {"smiles": "O=C(c1ccccc1Cl)n1nc(-c2cccs2)nc1NCc1ccc(F)cc1", "note": "[Cmpd 113, 1-[(2-chlorophenyl)carbonyl]-N-[(4-fluorophenyl)methyl]-3-(thiophen-2-yl)-1H-1,2,4-triazol-5-amine]", "pIC50": "> 7.00"},
      {"smiles": "CCC(=O)n1nc(-c2cccnc2)nc1NCCc1ccccc1", "note": "[Cmpd 22]", "pIC50": "< 6.00"},
      {"smiles": "CCC(=O)n1nc(-c2cccnc2)cc1NCc1ccc(F)cc1", "note": "[Cmpd 74, 1-(5-[(4-fluorophenyl)methyl]amino-3-(pyridin-3-yl)-1H-pyrazol-1-yl)propan-1-one]", "pIC50": "< 6.00"},
      {"smiles": "CC(=O)c1cc(-c2ccccn2)nn1CCc1ccc(F)cc1", "note": "[Cmpd 164, 1-1-[2-(4-fluorophenyl)ethyl]-3-(pyridin-2-yl)-1H-pyrazol-5-ylethan-1-one]", "pIC50": "< 6.00"},
      {"smiles": "O=C(c1cc(-c2ccccn2)n(CCc2ccc(F)cc2)n1)N1CCCCC1", "note": "[Cmpd 59]", "pIC50": "< 6.00"},
      {"smiles": "COc1ccc(CNc2nc(-c3ccncc3)nn2C(=O)Cc2ccccc2)cc1", "note": "[Cmpd 96, 1-(5-[(4-methoxyphenyl)methyl]amino-3-(pyridin-4-yl)-1H-1,2,4-triazol-1-yl)-2-phenylethan-1-one]", "pIC50": "> 7.00"},
      {"smiles": "O=C(Cc1ccccc1)n1nc(-c2ccccn2)nc1NCc1ccccc1", "note": "[Cmpd 139, 1-[5-(benzylamino)-3-(pyridin-2-yl)-1H-1,2,4-triazol-1-yl]-2-phenylethan-1-one]", "pIC50": "> 7.00"},
      {"smiles": "CN(C)C(=O)c1n[nH]c(C(=O)Nc2ccccc2Cl)n1", "note": "[Cmpd 186, 5-C-(2-chlorobenzene)-3-N,3-N-dimethyl-1H-1,2,4-triazole-3,5-dicarboxamide]", "pIC50": "< 6.00"},
      {"smiles": "O=C(CCc1ccccc1)n1nc(-c2ccncc2)nc1NCc1ccc(F)cc1", "note": "[Cmpd 79, 1-(5-[(4-fluorophenyl)methyl]amino-3-(pyridin-4-yl)-1H-1,2,4-triazol-1-yl)-3-phenylpropan-1-one]", "pIC50": "> 7.00"},
      {"smiles": "CC(C)CC(=O)n1nc(-c2ccccn2)nc1NCc1ccccc1", "note": "[Cmpd 140, 1-[5-(benzylamino)-3-(pyridin-2-yl)-1H-1,2,4-triazol-1-yl]-3-methylbutan-1-one]", "pIC50": "> 7.00"},
      {"smiles": "CC(C)CC(=O)n1nc(-c2ccccn2)cc1NCc1ccccc1", "note": "[Cmpd 144, 1-[5-(benzylamino)-3-(pyridin-2-yl)-1H-pyrazol-1-yl]-3-methylbutan-1-one]", "pIC50": "6.00 to 7.00"},
      {"smiles": "COc1ccc(CNc2nc(-c3cccnc3)nn2C(=O)c2ccoc2)cc1", "note": "[Cmpd 126, 1-[(furan-3-yl)carbonyl]-N-[(4-methoxyphenyl)methyl]-3-(pyridin-3-yl)-1H-1,2,4-triazol-5-amine]", "pIC50": "6.00 to 7.00"},
      {"smiles": "COc1ccc(CNc2nc(-c3ccncc3)nn2C(=O)CCc2ccccc2)cc1", "note": "[Cmpd 98, 1-(5-[(4-methoxyphenyl)methyl]amino-3-(pyridin-4-yl)-1H-1,2,4-triazol-1-yl)-3-phenylpropan-1-one]", "pIC50": "< 6.00"},
      {"smiles": "COc1ccccc1C(=O)n1nc(-c2ccncn2)nc1NCc1ccccc1", "note": "[Cmpd 33]", "pIC50": "> 7.00"},
      {"smiles": "COc1ccc(CNc2nc(-c3ccncc3)nn2C(=O)c2ccco2)cc1", "note": "[Cmpd 124, 1-[(furan-2-yl)carbonyl]-N-[(4-methoxyphenyl)methyl]-3-(pyridin-4-yl)-1H-1,2,4-triazol-5-amine]", "pIC50": "6.00 to 7.00"},
      {"smiles": "CCC(=O)n1nc(-c2cccs2)nc1SC", "note": "[Cmpd 154, 1-[5-(methylsulfanyl)-3-(thiophen-2-yl)-1H-1,2,4-triazol-1-yl]propan-1-one]", "pIC50": "< 6.00"},
      {"smiles": "CC(C)(C)C(=O)n1nc(-c2cccnc2)nc1NCc1ccc(F)cc1", "note": "[Cmpd 71, 1-(5-[(4-fluorophenyl)methyl]amino-3-(pyridin-3-yl)-1H-1,2,4-triazol-1-yl)-2,2-dimethylpropan-1-one]", "pIC50": "> 7.00"},
      {"smiles": "CC(C)(C)C(=O)n1nc(-c2cccs2)nc1NCc1ccccc1", "note": "[Cmpd 152, 1-[5-(benzylamino)-3-(thiophen-2-yl)-1H-1,2,4-triazol-1-yl]-2,2-dimethylpropan-1-one]", "pIC50": "> 7.00"},
      {"smiles": "O=C(c1ccccc1Cl)n1nc(-c2ccccn2)cc1NCc1ccc(F)cc1", "note": "[Cmpd 41]", "pIC50": "6.00 to 7.00"},
      {"smiles": "COc1ccccc1C(=O)n1nc(-c2cccs2)nc1NCc1ccc(F)cc1", "note": "[Cmpd 27]", "pIC50": "6.00 to 7.00"},
      {"smiles": "O=C(Nc1ccccc1)c1cn(-c2ccccn2)nc1NCc1ccc(F)cc1", "note": "[Cmpd 183, 3-[(4-fluorophenyl)methyl]amino-N-phenyl-1-(pyridin-2-yl)-1H-pyrazole-4-carboxamide]", "pIC50": "< 6.00"},
      {"smiles": "COc1ccc(CNc2nc(-c3ccccn3)nn2C(=O)C(C)C)cc1", "note": "[Cmpd 88, 1-(5-[(4-methoxyphenyl)methyl]amino-3-(pyridin-2-yl)-1H-1,2,4-triazol-1-yl)-2-methylpropan-1-one]", "pIC50": "> 7.00"},
      {"smiles": "O=C(Nc1cc(-c2ccccn2)nn1-c1ccccc1Cl)c1ccc(F)cc1", "note": "[Cmpd 43]", "pIC50": "< 6.00"}
    ]}
  ]
}
